# Assay results as given in the C3SDB collision cross section collection.
# Where a name gives a salt, the structure may show the parent alone.
# Settings: instrument: TW, calibrated with polyalanine and drug standards
structure (smiles),measurement,setting,value
O=C(CCCN1CC=C(n2c(=O)[nH]c3ccccc32)CC1)c1ccc(F)cc1 [DROPERIDOL],collision cross section (N2),[M+H]+,195 Å²
CCOC(=O)COc1ccc2c(=O)cc(-c3ccccc3)oc2c1 [EFLOXATE],collision cross section (N2),[M+H]+,177.4 Å²
C=CCOC(Cn1ccnc1)c1ccc(Cl)cc1Cl (stereo not drawn) [ENILCONAZOLE],collision cross section (N2),[M+H]+,165.2 Å²
"Oc1ccc([C@H]2Oc3cc(O)cc(O)c3C[C@H]2O)cc1 [EPIAFZELECHIN (2R,3R)(-)]",collision cross section (N2),[M+H]+,159.4 Å²
COc1ccc([C@H]2Oc3cc(OC)cc(OC)c3C[C@H]2O)cc1 [EPIAFZELECHIN TRIMETHYL ETHER],collision cross section (N2),[M+H]+,170 Å²
O=C(O[C@@H]1Cc2c(O)cc(O)cc2O[C@@H]1c1cc(O)c(O)c(O)c1)c1cc(O)c(O)c(O)c1 [EPIGALLOCATECHIN-3-MONOGALLATE],collision cross section (N2),[M+H]+,206.1 Å²
Oc1cc(O)c2c(c1)O[C@H](c1cc(O)c(O)c(O)c1)[C@H](O)C2 [EPIGALLOCATECHIN],collision cross section (N2),[M+H]+,165.5 Å²
CCc1cccc2c3c([nH]c12)C(CC)(CC(=O)O)OCC3 (stereo not drawn) [ETODOLAC],collision cross section (N2),[M+H]+,164.4 Å²
CC(=O)OC1CCC2(C)C3=C(CC[C@H]2C1(C)C)[C@@]1(C)CC[C@@H]([C@@H](C)CCC=C(C)C)[C@]1(C)CC3 (stereo partly drawn) [EUPHOL ACETATE],collision cross section (N2),[M+H]+,218 Å²
O=C1[C@H](CC[C@H](O)c2ccc(F)cc2)[C@@H](c2ccc(O)cc2)N1c1ccc(F)cc1 [EZETIMIBE],collision cross section (N2),[M+Na]+,213.6 Å²
CC(C)c1c(CN(C)C(C)Cc2ccccc2)n(C)n(-c2ccccc2)c1=O (stereo not drawn) [FAMPROFAZONE],collision cross section (N2),[M+H]+,190.9 Å²
COc1cc(/C=C/C(=O)O)ccc1O [FERULIC ACID],collision cross section (N2),[M+H]+,128.8 Å²
CC(C)(C)NC(=O)[C@H]1CC[C@H]2[C@@H]3CC[C@H]4NC(=O)C=C[C@]4(C)[C@H]3CC[C@]12C [FINASTERIDE],collision cross section (N2),[M+H]+,200 Å²
O=c1c(O)c(-c2ccc(O)c(O)c2)oc2cc(O)ccc12 [FISETIN],collision cross section (N2),[M+H]+,160.7 Å²
Nc1nc(F)nc2c1ncn2[C@@H]1O[C@H](COP(=O)(O)O)[C@@H](O)[C@@H]1O [FLUDARABINE PHOSPHATE],collision cross section (N2),[M+H]+,168.8 Å²
CC1(C)O[C@@H]2C[C@H]3[C@@H]4C[C@H](F)C5=CC(=O)C=C[C@]5(C)[C@H]4[C@@H](O)C[C@]3(C)[C@]2(C(=O)CO)O1 [FLUNISOLIDE],collision cross section (N2),[M+H]+,199.8 Å²
CC(C)C(=O)Nc1ccc([N+](=O)[O-])c(C(F)(F)F)c1 [FLUTAMIDE],collision cross section (N2),[M+H]+,160 Å²
O=C(O)c1ccccc1OP(=O)(O)O [FOSFOSAL],collision cross section (N2),[M+H]+,138.4 Å²
Cc1cccc(C)c1NC(=O)c1ccccc1C(=O)O [FTAXILIDE],collision cross section (N2),[M+H]+,159.2 Å²
Cc1cc(O)c(C=O)c2c1C(=O)Oc1c(COC(=O)/C=C/C(=O)O)c(O)c(C(=O)O)c(C)c1O2 [FUMARPROTOCETRARIC ACID],collision cross section (N2),[M+H]+,204.5 Å²
O=C1OC(CN2CCOCC2)CN1/N=C/c1ccc([N+](=O)[O-])o1 (stereo not drawn) [FURALTADONE],collision cross section (N2),[M+H]+,166.9 Å²
O=c1c(O)c(-c2ccccc2)oc2cc(O)cc(O)c12 [GALANGIN],collision cross section (N2),[M+H]+,154.9 Å²
O=C(O)c1cc(O)c(O)c(O)c1 [GALLIC ACID],collision cross section (N2),[M+H]+,130.9 Å²
COC(=O)c1c(OC)cc2c(c1C)Oc1c(Cl)c(O)c(Cl)c(C)c1C(=O)O2 [GANGALEOIDIN],collision cross section (N2),[M+H]+,186.4 Å²
COc1c(N2CCNC(C)C2)c(F)cc2c(=O)c(C(=O)O)cn(C3CC3)c12 (stereo not drawn) [GATIFLOXACIN],collision cross section (N2),[M+H]+,189.5 Å²
Cc1ccc(S(=O)(=O)NC(=O)NN2CC3CCCC3C2)cc1 (stereo not drawn) [GLICLAZIDE],collision cross section (N2),[M+H]+,178 Å²
OC[C@@H](O)[C@@H](O[C@@H]1O[C@H](CO)[C@@H](O)[C@H](O)[C@H]1O)[C@H](O)[C@@H](O)CO [GLUCITOL-4-GUCOPYANOSIDE],collision cross section (N2),[M+Na]+,174.3 Å²
N[C@@H](C(=O)O)[C@@H](O)[C@H](O)[C@H](O)CO [GLUCOSAMINIC ACID],collision cross section (N2),[M+H]+,138.8 Å²
COc1ccc(Cl)cc1C(=O)NCCc1ccc(S(=O)(=O)NC(=O)NC2CCCCC2)cc1 [GLYBURIDE],collision cross section (N2),[M+H]+,205.9 Å²
Cc1cc2c(C(C)C)c(O)c(O)c(C=O)c2c(O)c1-c1c(C)cc2c(C(C)C)c(O)c(O)c(C=O)c2c1O [GOSSYPOL],collision cross section (N2),[M+H-H2O]+,228.1 Å²
C[C@H]1CC[C@@H](C(C)(C)O)CC2=C1CC[C@@H]2C [GUAIOL(-)],collision cross section (N2),[M+H]+,146.3 Å²
NC(N)=NC(=O)Cc1c(Cl)cccc1Cl [GUANFACINE],collision cross section (N2),[M+H]+,148.9 Å²
"CCOC(=O)c1c(C)cc(O)c(C=O)c1O [HAEMATOMMIC ACID, ETHYL ESTER]",collision cross section (N2),[M+H]+,144 Å²
O=C(CCCN1CCC(O)(c2ccc(Cl)cc2)CC1)c1ccc(F)cc1 [HALOPERIDOL],collision cross section (N2),[M+H]+,191.7 Å²
Cc1nccc2c1[nH]c1ccccc12 [HARMANE],collision cross section (N2),[M+H]+,136.6 Å²
CC1(C)CC[C@]2(C(=O)O)CC[C@]3(C)C(=CC[C@@H]4[C@@]5(C)CC[C@H](O)[C@@](C)(CO)[C@@H]5CC[C@]43C)[C@@H]2C1 [HEDERAGENIN],collision cross section (N2),[M+H-H2O]+,210.6 Å²
O=Cc1ccccc1O[C@@H]1O[C@H](CO)[C@@H](O)[C@H](O)[C@H]1O [HELICIN],collision cross section (N2),[M+Na]+,161.4 Å²
CCCCC(CC)CN1CN(CC(CC)CCCC)CC(C)(N)C1 (stereo not drawn) [HEXETIDINE],collision cross section (N2),[M+H]+,194 Å²
COc1ccc2c(c1)O[C@H]1c3ccc(OC)cc3OC[C@@H]21 [HOMOPTEROCARPIN],collision cross section (N2),[M+H]+,162.7 Å²
CCN(CC)CCNc1ccc(CO)c2sc3ccccc3c(=O)c12 [HYCANTHONE],collision cross section (N2),[M+H]+,180.4 Å²
NS(=O)(=O)c1cc2c(cc1Cl)NCNS2(=O)=O [HYDROCHLOROTHIAZIDE],collision cross section (N2),[M+H-H2O]+,160.8 Å²
CC[C@H]1CN2CC[C@H]1C[C@@H]2[C@@H](O)c1ccnc2ccc(OC)cc12 [HYDROQUINIDINE],collision cross section (N2),[M+H]+,176.7 Å²
CC(=O)[C@@]1(O)CC[C@H]2[C@@H]3CCC4=CC(=O)CC[C@]4(C)[C@H]3CC[C@@]21C [HYDROXYPROGESTERONE],collision cross section (N2),[M+H]+,179.9 Å²
COc1ccc2c(C)cc(=O)oc2c1 [HYMECROMONE METHYL ETHER],collision cross section (N2),[M+H]+,134.4 Å²
COC1=C(OC)C(=O)C(CCCCCCCCCCO)=C(C)C1=O [IDEBENONE],collision cross section (N2),[M+H]+,178.6 Å²
O=C([O-])Cc1cnc[nH]1 [IMIDAZOL-4-YLACETIC ACID SODIUM SALT],collision cross section (N2),[M+H]+,120.7 Å²
CCC(Cc1c(I)cc(I)c(N)c1I)C(=O)O (stereo not drawn) [IOPANIC ACID],collision cross section (N2),[M+H]+,172.7 Å²
CC(C)Oc1ccc2c(=O)c(-c3ccccc3)coc2c1 [IPRIFLAVONE],collision cross section (N2),[M+H]+,164.3 Å²
CCCCC1=NC2(CCCC2)C(=O)N1Cc1ccc(-c2ccccc2-c2nn[nH]n2)cc1 [IRBESARTAN],collision cross section (N2),[M+H]+,201.2 Å²
COc1cc(-c2coc3cc(O[C@@H]4O[C@H](CO)[C@@H](O)[C@H](O)[C@H]4O)c(OC)c(O)c3c2=O)cc(O)c1OC [IRIDIN],collision cross section (N2),[M+H]+,227.2 Å²
COc1cc(-c2coc3cc(OC)c(OC)c(OC)c3c2=O)cc(OC)c1OC [IRIGENIN TRIMETHYL ETHER],collision cross section (N2),[M+H]+,195.4 Å²
COc1cc(-c2coc3cc(O)c(OC)c(O)c3c2=O)cc(O)c1OC [IRIGENIN],collision cross section (N2),[M+H]+,181.6 Å²
COc1cc2occc2c2oc(=O)ccc12 [ISOBERGAPTENE],collision cross section (N2),[M+H]+,139.8 Å²
COc1cc2c(cc1OC)[C@@H]1C(=O)c3ccc4oc(C(C)C)cc4c3O[C@@H]1CO2 [ISOROTENONE],collision cross section (N2),[M+H]+,195.2 Å²
O=[N+]([O-])O[C@H]1CO[C@H]2[C@@H]1OC[C@H]2O[N+](=O)[O-] [ISOSORBIDE DINITRATE],collision cross section (N2),[M+H]+,151.6 Å²
Cc1cc(NC(=O)C2=C(O)c3ccccc3S(=O)(=O)N2C)no1 [ISOXICAM],collision cross section (N2),[M+H]+,170.8 Å²
CC[C@H](C)[C@H]1O[C@]2(CC[C@@H]1C)C[C@@H]1C[C@@H](C/C=C(\C)[C@@H](O[C@H]3C[C@H](OC)[C@@H](O[C@H]4C[C@H](OC)[C@@H](O)[C@H](C)O4)[C@H](C)O3)[C@@H](C)/C=C/C=C3\CO[C@@H]4[C@H](O)C(C)=C[C@@H](C(=O)O1)[C@]34O)O2 [IVERMECTIN],collision cross section (N2),[M+Na]+,292.7 Å²
CC(=O)N1CCN(c2ccc(OC[C@H]3CO[C@](Cn4ccnc4)(c4ccc(Cl)cc4Cl)O3)cc2)CC1 [KETOCONAZOLE],collision cross section (N2),[M+H]+,214.5 Å²
OC[C@H]1O[C@@H](n2cnc3c(NCc4ccco4)ncnc32)[C@H](O)[C@@H]1O [KINETIN RIBOSIDE],collision cross section (N2),[M+H]+,179 Å²
c1coc(CNc2ncnc3nc[nH]c23)c1 [KINETIN],collision cross section (N2),[M+H]+,144.1 Å²
Nc1nnc(-c2cccc(Cl)c2Cl)c(N)n1 [LAMOTRIGINE],collision cross section (N2),[M+H]+,150.6 Å²
Cc1c(OCC(F)(F)F)ccnc1CS(=O)c1nc2ccccc2[nH]1 (stereo not drawn) [LANSOPRAZOLE],collision cross section (N2),[M+H]+,185.8 Å²
CC(C)CCC[C@@H](C)[C@H]1CC[C@H]2C3=CC[C@H]4C[C@@H](O)CC[C@]4(C)[C@H]3CC[C@]12C [LATHOSTEROL],collision cross section (N2),[M+H-H2O]+,204 Å²
NCCCC[C@H](N[C@@H](CCc1ccccc1)C(=O)O)C(=O)N1CCC[C@H]1C(=O)O [LISINOPRIL],collision cross section (N2),[M+H]+,189.7 Å²
CCCCc1nc(Cl)c(CO)n1Cc1ccc(-c2ccccc2-c2nn[nH]n2)cc1 [LOSARTAN],collision cross section (N2),[M+H]+,199.2 Å²
C[C@H]1[C@H](C)CC[C@]2(C(=O)O)CC[C@]3(C)C(=CC[C@@H]4[C@@]5(C)C[C@@H](O)[C@H](O)[C@@](C)(CO)[C@@H]5[C@H](O)C[C@]43C)[C@H]12 [MADECASSIC ACID],collision cross section (N2),[M+Na]+,234.8 Å²
CCOC(=O)CC(SP(=S)(OC)OC)C(=O)OCC (stereo not drawn) [MALATHION],collision cross section (N2),[M+Na]+,171.5 Å²
Cc1cccc(Nc2ccccc2C(=O)O)c1C [MEFENAMIC ACID],collision cross section (N2),[M+H]+,153.3 Å²
